Data from patent US20240408043A1, “COMPOSITIONS AND METHODS FOR USE IN INCREASING MOTIVATIONAL PERFORMANCE” (SOCIETE DES PRODUITS NESTLE S.A., priority 2021, published 2024).
Entries after “also recorded” stand apart in the source; their conditions may differ.

Key:
[1] = test system: GSH in the nucleus accumbens; experiment: GSH level in the nucleus accumbens after NAC in the drinking water; type: in vivo, rat; conditions: adult male rats, NAC 500 mg/L in the drinking water for 2 weeks, FIG. 1B
Adult male Wistar rats = experiment: Progressive ratio test of motivated behaviour (operant conditioning, nose poke for saccharine pellets); type: in vivo, rat; conditions: NAC 500 mg/L in the drinking water for 2 weeks, two-hour session
Procedure: Adult male outbred rats were trained for nose poke for saccharine food pellets for one week on an FR1 training schedule as described in the methods below. […] Following 2 weeks of treatment, rats were given an additional 2 training sessions, followed 24 h later by a progressive ratio session designed to test their motivated behaviour. During this progressive ratio session, rats have to increasingly work harder to earn the saccharine pellet, as described in the methods below. […] The breakpoint is defined as the last step in the session where the animals received a reward and is a direct correlate of their willingness to exert an effort. […] Animals: Adult male Wistar rats (Charles Rivers, Saint-German-Nuelle, France) weighing 250-275 gr at the beginning of the experiment were used for all experiments. Rats were individually housed in cages in housing colonies on a 12:12 h reversed light:dark cycle with lights on at 20:00, and lights-off at 8:00. Food and water were available adlibitum. Following a week of acclimatization to the animal facilities, rats were handled for 2 min per day for three days prior to the start of the experiments, in order to habituate to the experimenters. Operant conditioning: Ten days after introduction to the reversed day-night cycle, rats started training in a fixed ratio 1 reinforcement schedule (FR1). Operant chambers (Coulbourn Instruments, Holliston, MA, US), placed in sound attenuating cubicles, were equipped with a grid, underneath which a tray with standard bedding material was placed for collection of feces and urine after each training session. Each chamber had one food tray and two ports placed on either side of the tray. A cue light was placed in each port and the food tray, whereas a house light was placed above the food tray. […] Correct nosepokes (i.e. nosepokes in the active port and outside the timeout period, thus resulting in food delivery) were calculated to evaluate behavioural performance, as well as the number of acquired rewards and the last completed ratio (breakpoint).

Structure (SMILES): CC(=O)N[C@@H](CS)C(=O)O [NAC, N-acetyl cysteine]
- GSH in the nucleus accumbens compared to vehicle treated rats [1]: enhance GSH levels; also recorded: enhanced GSH
- nose pokes for the reward (correct nosepokes) in progressive ratio session, compared to vehicle (Adult male Wistar rats; FIG. 1C): significantly more nose pokes
- number of rewards earned in progressive ratio session, compared to vehicle (Adult male Wistar rats; FIG. 1D): greater number of rewards; also recorded: more overall rewards
- breakpoint (last completed ratio) in progressive ratio session, compared to vehicle (Adult male Wistar rats; FIG. 1E): significantly higher breakpoint level
